In article PMC5063900, “A phase 1 study of the safety, tolerability, pharmacokinetics, and pharmacodynamics of TAK-063, a selective PDE10A inhibitor” (Psychopharmacology, 2016):
Marks after values point to notes of the source that are not given here.

Assay: Plasma and urine pharmacokinetics after single oral dose under fasting conditions
Format: in vivo, human
Settings: for AUC(0-inf) / C max / CL/F (oral clearance) / T 1/2 / Vz/F (volume of distribution) / T max / CL/F / Vz/F: plasma
Protocol: Healthy Japanese and non-Japanese subjects between 18 and 55 years of age were recruited to participate in the study. Criteria for exclusion included prior treatment with any investigational compound within 30 days of the first TAK-063 dose, a positive test for drugs of abuse or nicotine, and an increased risk for suicide. Subjects were randomized into 1 of 6 dose cohorts (3, 10, 30, 100, 300, and 1000 mg), with each cohort containing 11 TAK-063 subjects (five Japanese, six non-Japanese) and three placebo subjects (one Japanese, two non-Japanese) receiving a single dose under fasting conditions. Following a washout period of 7 days, subjects in cohort 3 (100 mg) received the same dose (100 mg) but under fed conditions. Serial plasma and urine samples were collected from all subjects prior to dosing and at specific time points or intervals up to 96 h postdose. Pharmacokinetic samples were processed immediately and frozen at −20 °C as duplicate sets. Plasma concentrations of TAK-063 and its metabolite M-I were subsequently measured by validated liquid chromatography-tandem mass spectrometry with a validated range of 0.5 to 1000 ng/mL for both analytes. The PK parameters analyzed for TAK-063 and its metabolite M-I in plasma and urine included area under the plasma concentration-time curve from time 0 to infinity (AUC (0-inf)), maximum observed plasma concentration (C max), time to reach C max (T max), terminal elimination half-life (T 1/2), oral clearance (CL/F), volume of distribution (Vz/F), and renal clearance (CLr). Metabolite-to-parent ratios were estimated from C max and AUC (0-inf) data. All statistical analyses were generated using SAS Version 9.2 (SAS, Cary, NC, USA). The PK parameters were derived using non-compartmental methods with WinNonlin Enterprise Version 6.3 (Pharsight Corp., Mountain View, CA, USA). Frequency or descriptive statistics were used for summary of data. Where indicated, percent coefficient of variation was included in the summary of continuous data. All statistical tests were 2-tailed at α = 0.05 level for significance unless otherwise stated. A power model was used to evaluate dose proportionality by race for fasted subjects; in the event of no observed race effect, dose proportionality was assessed for all subjects. To evaluate the food effect, a paired t test was performed on T max and natural log-transformed C max, and AUCs. An ANCOVA model with baseline scores and race as covariates was used to assess the effects of TAK-063 on CNSVS domain scores.

[1] = Japanese subjects, TAK-063 3 mg (n = 5), arithmetic mean
[2] = Japanese subjects, TAK-063 10 mg (n = 5), arithmetic mean
[3] = Japanese subjects, TAK-063 30 mg (n = 5), arithmetic mean
[4] = Japanese subjects, TAK-063 100 mg (n = 4), arithmetic mean
[5] = Japanese subjects, TAK-063 100 mg (n = 5; TAK-063 n = 4), arithmetic mean
[6] = Japanese subjects, TAK-063 300 mg (n = 4), arithmetic mean
[7] = Japanese subjects, TAK-063 300 mg (n = 5; TAK-063 n = 4), arithmetic mean
[8] = Japanese subjects, TAK-063 1000 mg (n = 5), arithmetic mean
[9] = fasting, all subjects, TAK-063 3 mg (n = 11), arithmetic mean (% CV)
[10] = fasting, all subjects, TAK-063 3 mg (n = 11; M-I n = 10), arithmetic mean (% CV)
[11] = fasting, all subjects, TAK-063 10 mg (n = 11), arithmetic mean (% CV)
[12] = fasting, all subjects, TAK-063 30 mg (n = 11), arithmetic mean (% CV)
[13] = fasting, all subjects, TAK-063 100 mg (n = 9), arithmetic mean (% CV)
[14] = fasting, all subjects, TAK-063 100 mg (n = 11; TAK-063 n = 9), arithmetic mean (% CV)
[15] = fasting, all subjects, TAK-063 300 mg (n = 8), arithmetic mean (% CV)
[16] = fasting, all subjects, TAK-063 300 mg (n = 11; TAK-063 n = 8), arithmetic mean (% CV)
[17] = fasting, all subjects, TAK-063 1000 mg (n = 11), arithmetic mean (% CV)
[18] = non-Japanese subjects, TAK-063 3 mg (n = 6), arithmetic mean
[19] = non-Japanese subjects, TAK-063 3 mg (n = 6; M-I n = 5), arithmetic mean
[20] = non-Japanese subjects, TAK-063 10 mg (n = 6), arithmetic mean
[21] = non-Japanese subjects, TAK-063 30 mg (n = 6), arithmetic mean
[22] = non-Japanese subjects, TAK-063 100 mg (n = 5), arithmetic mean
[23] = non-Japanese subjects, TAK-063 100 mg (n = 6; TAK-063 n = 5), arithmetic mean
[24] = non-Japanese subjects, TAK-063 300 mg (n = 4), arithmetic mean
[25] = non-Japanese subjects, TAK-063 300 mg (n = 6; TAK-063 n = 4), arithmetic mean
[26] = non-Japanese subjects, TAK-063 1000 mg (n = 6), arithmetic mean

## COc1cn(-c2ccc(-n3cccn3)cc2F)nc(-c2ccnn2-c2ccccc2)c1=O [TAK-063]
333-fold increase in dose (3 to 1000 mg), fasting
  Increase in AUC over the dose range: up to 26 fold
[1]
  AUC(0-inf): 250.3 ng·h/mL
  C max: 16.1 ng/mL
  CL/F (oral clearance): 12.5 L/h
  T 1/2: 15.9 h
  Vz/F (volume of distribution): 269.5 L
Japanese subjects, TAK-063 3 mg (n = 5), median
  T max: 4.0 h
[2]
  AUC(0-inf): 659.2 ng·h/mL
  C max: 30.2 ng/mL
  CL/F (oral clearance): 15.8 L/h
  T 1/2: 18.2 h
  Vz/F (volume of distribution): 412.2 L
Japanese subjects, TAK-063 10 mg (n = 5), median
  T max: 4.0 h
[3]
  AUC(0-inf): 1027.3 ng·h/mL
  C max: 55.7 ng/mL
  CL/F (oral clearance): 35.2 L/h
  T 1/2: 17.8 h
  Vz/F (volume of distribution): 889.4 L
Japanese subjects, TAK-063 30 mg (n = 5), median
  T max: 4.0 h
[4]
  AUC(0-inf): 1459.1 ng·h/mL
  T 1/2: 20.7 h
Japanese subjects, TAK-063 100 mg (n = 5), arithmetic mean
  C max: 89.9 ng/mL
Japanese subjects, TAK-063 100 mg (n = 5), median
  T max: 3.0 h
[5]
  CL/F (oral clearance): 75.8 L/h
  Vz/F (volume of distribution): 2288.5 L
[6]
  AUC(0-inf): 1636.0 ng·h/mL
  T 1/2: 20.3 h
Japanese subjects, TAK-063 300 mg (n = 5), arithmetic mean
  C max: 98.2 ng/mL
Japanese subjects, TAK-063 300 mg (n = 5), median
  T max: 4.0 h
[7]
  CL/F (oral clearance): 212.8 L/h
  Vz/F (volume of distribution): 6409.8 L
[8]
  AUC(0-inf): 4931.4 ng·h/mL
  C max: 264.0 ng/mL
  CL/F (oral clearance): 233.8 L/h
  T 1/2: 11.7 h
  Vz/F (volume of distribution): 3953.4 L
Japanese subjects, TAK-063 1000 mg (n = 5), median
  T max: 4.0 h
[9]
  C max: 11.8 (51) ng/mL
  CL/F (oral clearance): 14.0 (48) L/h
  Vz/F (volume of distribution): 407.0 (64) L
fasting, all subjects, TAK-063 3 mg (n = 11), median (minimum, maximum)
  T max: 4.0 (2.0, 24.0) h
[10]
  AUC(0-inf): 244.9 (32) ng·h/mL
  T 1/2: 20.4 (48) h
[11]
  AUC(0-inf): 576.7 (29) ng·h/mL
  C max: 26.7 (34) ng/mL
  CL/F (oral clearance): 18.7 (30) L/h
  T 1/2: 19.9 (18) h
  Vz/F (volume of distribution): 529.5 (29) L
fasting, all subjects, TAK-063 10 mg (n = 11), median (minimum, maximum)
  T max: 4.0 (2.0, 16.0) h
[12]
  AUC(0-inf): 1003.6 (42) ng·h/mL
  C max: 46.9 (61) ng/mL
  CL/F (oral clearance): 33.1 (27) L/h
  T 1/2: 20.4 (30) h
  Vz/F (volume of distribution): 954.8 (33) L
fasting, all subjects, TAK-063 30 mg (n = 11), median (minimum, maximum)
  T max: 4.0 (3.0, 16.0) h
[13]
  AUC(0-inf): 1406.8 (38)^c ng·h/mL
  T 1/2: 24.6 (37)^c h
fasting, all subjects, TAK-063 100 mg (n = 11), arithmetic mean (% CV)
  C max: 80.5 (48) ng/mL
fasting, all subjects, TAK-063 100 mg (n = 11), median (minimum, maximum)
  T max: 3.0 (1.5, 6.0) h
[14]
  CL/F (oral clearance): 80.3 (35)^c L/h
  Vz/F (volume of distribution): 2802.2 (46)^c L
[15]
  AUC(0-inf): 1900.8 (39)^d ng·h/mL
  T 1/2: 20.2 (26)^d h
fasting, all subjects, TAK-063 300 mg (n = 11), arithmetic mean (% CV)
  C max: 100.3 (18) ng/mL
fasting, all subjects, TAK-063 300 mg (n = 11), median (minimum, maximum)
  T max: 4.0 (1.9, 8.0) h
[16]
  CL/F (oral clearance): 185.9 (48)^d L/h
  Vz/F (volume of distribution): 5570.7 (57)^d L
[17]
  AUC(0-inf): 5788.1 (81) ng·h/mL
  C max: 245.8 (34) ng/mL
  CL/F (oral clearance): 232.0 (42) L/h
  T 1/2: 14.6 (43) h
  Vz/F (volume of distribution): 5277.2 (81) L
fasting, all subjects, TAK-063 1000 mg (n = 11), median (minimum, maximum)
  T max: 4.0 (2.0, 12.0) h
[18]
  C max: 8.2 ng/mL
  CL/F: 15.2 L/h
  Vz/F: 521.6 L
non-Japanese subjects, TAK-063 3 mg (n = 6), median
  T max: 5.0 h
[19]
  AUC(0-inf): 240.4 ng·h/mL
  T 1/2: 24.2 h
[20]
  AUC(0-inf): 507.9 ng·h/mL
  C max: 23.8 ng/mL
  CL/F: 21.2 L/h
  T 1/2: 21.3 h
  Vz/F: 627.3 L
non-Japanese subjects, TAK-063 10 mg (n = 6), median
  T max: 5.0 h
[21]
  AUC(0-inf): 983.9 ng·h/mL
  C max: 39.5 ng/mL
  CL/F: 31.4 L/h
  T 1/2: 22.6 h
  Vz/F: 1009.2 L
non-Japanese subjects, TAK-063 30 mg (n = 6), median
  T max: 5.0 h
[22]
  AUC(0-inf): 1364.9 ng·h/mL
  T 1/2: 27.8 h
non-Japanese subjects, TAK-063 100 mg (n = 6), arithmetic mean
  C max: 72.7 ng/mL
non-Japanese subjects, TAK-063 100 mg (n = 6), median
  T max: 3.5 h
[23]
  CL/F: 84.0 L/h
  Vz/F: 3213.2 L
[24]
  AUC(0-inf): 2165.7 ng·h/mL
  T 1/2: 20.0 h
non-Japanese subjects, TAK-063 300 mg (n = 6), arithmetic mean
  C max: 102.1 ng/mL
non-Japanese subjects, TAK-063 300 mg (n = 6), median
  T max: 3.5 h
[25]
  CL/F: 159.0 L/h
  Vz/F: 4731.5 L
[26]
  AUC(0-inf): 6502.0 ng·h/mL
  C max: 230.7 ng/mL
  CL/F: 230.6 L/h
  T 1/2: 17.0 h
  Vz/F: 6380.3 L
non-Japanese subjects, TAK-063 1000 mg (n = 6), median
  T max: 4.0 h
urine, Japanese subjects, TAK-063 30 mg (n = 5), arithmetic mean
  CLr (renal clearance): 4.0 mL/h
urine, Japanese subjects, TAK-063 100 mg (n = 5), arithmetic mean
  CLr (renal clearance): 7.9 mL/h
urine, Japanese subjects, TAK-063 300 mg (n = 5), arithmetic mean
  CLr (renal clearance): 5.9 mL/h
urine, Japanese subjects, TAK-063 1000 mg (n = 5), arithmetic mean
  CLr (renal clearance): 6.8 mL/h
urine, fasting
  Renal elimination: negligible
urine, fasting, all subjects, TAK-063 30 mg (n = 11), arithmetic mean (% CV)
  CLr (renal clearance): 2.4 (123) mL/h
urine, fasting, all subjects, TAK-063 100 mg (n = 11), arithmetic mean (% CV)
  CLr (renal clearance): 5.9 (78) mL/h
urine, fasting, all subjects, TAK-063 300 mg (n = 11), arithmetic mean (% CV)
  CLr (renal clearance): 6.1 (63) mL/h
urine, fasting, all subjects, TAK-063 1000 mg (n = 11), arithmetic mean (% CV)
  CLr (renal clearance): 6.8 (56) mL/h
urine, non-Japanese subjects, TAK-063 30 mg (n = 6), arithmetic mean (% CV)
  CLr: 1.1 (179) mL/h
urine, non-Japanese subjects, TAK-063 100 mg (n = 6), arithmetic mean (% CV)
  CLr: 4.2 (84) mL/h
urine, non-Japanese subjects, TAK-063 300 mg (n = 6), arithmetic mean (% CV)
  CLr: 6.2 (63) mL/h
urine, non-Japanese subjects, TAK-063 1000 mg (n = 6), arithmetic mean (% CV)
  CLr: 6.8 (61) mL/h
